Data set [1] is described as follows: Solubility in hydrocarbon solvents at 20° C. In kind it is physicochemical. The source says:
Solubility in hydrocarbon solvents was examined for the compounds II-1 and II-2 of the present invention and for the compounds AO-1 and AO-2 which are structurally similar to the compounds of the present invention. The hydrocarbon solvents used were n-hexane and cyclohexane. (g/100 g solvent)

The conditions of data set [2]: U.S. Pat. No. 4,525,514; cited from earlier work.

With `C=CC(=O)Oc1c(Cc2cc(C)cc(C(C)(C)C)c2O)cc(C)cc1C(C)(C)C` [AO-1, 2-t-Butyl-6-(3-t-butyl-2-hydroxy-5-methylbenzyl)-4-methylphenyl acrylate], in data set [1], the “Solubility in Cyclohexane” value was 4.0 g/100 g solvent and the “Solubility in n-Hexane” value came out at 1.5 g/100 g solvent. Moreover, in data set [2], the “effect as a stabilizer for butadiene polymers (in words)” value is given as “effective as a stabilizer for butadiene polymers”.
Turning to `C=CC(=O)Oc1c(C(C)c2cc(C(C)(C)C)cc(C(C)(C)C)c2O)cc(C(C)(C)C)cc1C(C)(C)C` (stereo not drawn) [AO-2, 2,4-Di-t-butyl-6-[1-(3,5-di-t-butyl-2-hydroxyphenyl)ethyl]phenyl acrylate], in data set [1], the “Solubility in Cyclohexane” value is reported as 2.4 g/100 g solvent and the “Solubility in n-Hexane” value was found to be 1.1 g/100 g solvent.
For `C=CC(=O)Oc1c(C(C)c2cc(C(C)(C)CC)cc(C(C)(C)CC)c2O)cc(C(C)(C)CC)cc1C(C)(C)CC` (stereo not drawn) [II-1, 2,4-di-t-amyl-6-[1-(3,5-di-t-amyl-2-hydroxyphenyl)ethyl]phenyl acrylate] the same measures were 89 g/100 g solvent and 55 g/100 g solvent.
On the same counts, the results for `C=C(C)C(=O)Oc1c(C(C)c2cc(C(C)(C)CC)cc(C(C)(C)CC)c2O)cc(C(C)(C)CC)cc1C(C)(C)CC` (stereo not drawn) [II-2, 2,4-di-t-amyl-6-[1--(3,5-di-t-amyl-2-hydroxyphenyl)ethyl]phenyl methacrylate] are 108 g/100 g solvent and 65 g/100 g solvent.

(Values after patent US5128398A, “Phenolic compound and its use as stabilizer for butadiene polymer” (Sumitomo Chemical Company, Limited, priority 1987, dated 1992).)
